Measured values taken from patent US20250163016A1, “PYRIDINE DERIVATIVE, PREPARATION METHOD THEREFOR AND USE THEREOF” (CHENGDU EASTON BIOPHARMACEUTICALS CO., LTD., priority 2022, published 2025).

test system: not listed separately; test: Pharmacokinetics of oral administration of rats; type: in vivo; details: male, rat, SD rats, p.o. 5.0 mg/kg, plasma
Experimental: With SD rats as tested animals, blood drug concentrations in plasma at different moments after oral administration of the compounds of the present application by the rats in a clarification kit mode were determined using an LC-MS/MS method. Pharmacokinetic parameters of the compounds of the present application in the rats were obtained, and pharmacokinetic characteristics of the compounds were studied.
• SD rats, male, weight 180-220 g, 3 rats per group. The animals were fed in an animal house after being purchased, an adaptation period was at least 3 days, and they were used for tests after passing quarantine.
According to Table 4, each group of rats was given the corresponding tested drugs or positive drugs by gavage, before administration, and 15 min, 30 min, 1 h, 2 h, 4 h, 6 h, 8 h, and 24 h after administration, a fixed volume of blood was collected through eye sockets and placed in an EDTA-K2 anticoagulant tube, centrifuging was carried out at 8000 rpm for 1 min to separate plasma into a centrifuge tube, and the plasma was frozen in a −20° C. refrigerator.
The plasma at each time point stored at −20° C. was taken out, then acetonitrile was added, after whirling at 1500 revolutions for 2 min, centrifuging was carried out for 15 min (3500 r/min), and a fixed volume of solution supernatant was taken for LC-MS/MS analysis.
Non-compartment model fitting was carried out on pharmacokinetic behaviors of the tested compounds, and DAS3.31 software was adopted to calculate main pharmacokinetic parameters (T1/2, Tmax, Cmax, AUClast, etc.).

| AUC(0-t) [ng·h/mL] | Cmax [ng/mL] | Tmax [h] | half-life [h] | SMILES |
| --- | --- | --- | --- | --- |
| 1470 ± 44.6 | 130 ± 7.9 | 4.67 ± 2.31 | 5.97 ± 0.29 | COc1ccc(-c2c(C#N)cc(C3CCC(N)CC3)nc2-c2ccc(C#N)c(F)c2)cc1F (stereo not shown) [Compound 14, 6-(4-aminocyclohexyl)-2-(4-cyano-3-fluorophenyl)-3-(3-fluoro-4-methoxyphenyl)isonicotinonitrile] |
| 1410 ± 293 | 126 ± 23.9 | 4.67 ± 1.15 | 4.66 ± 0.73 | Cn1ncc2cc(-c3c(C#N)cc(N4CCCNCC4)nc3-c3ccc(C#N)c(F)c3)ccc21 [Compound 20, 2-(4-cyano-3-fluorophenyl)-6-(1,4-diazaniline-1-yl)-3-(1-methyl-1H-indazol-5-yl)isonicotinonitrile] |
| 1550 ± 252 | 125 ± 25.8 | 6 | 5.73 ± 0.8 | COc1ccc(-c2c(C#N)cc(N3CCCNCC3)nc2-c2ccc(C#N)c(F)c2)cc1F [Compound 15, 2-(4-cyano-3-fluorophenyl)-6-(1,4-diazacyclohepta-1-yl)-3-(3-fluoro-4-methoxyphenyl)isonicotinonitrile] |
| 1300 ± 411 | 93.9 ± 19.1 | 6 | 7.64 ± 2.46 | COc1ccc(-c2c(C#N)cc(N3CCC(N)CC3)nc2-c2ccc(C#N)c(F)c2)cc1F [Compound 1, 6-(4-aminopiperid-1-yl)-2-(4-cyano-3-fluorophenyl)-3-(3-fluoro-4-methoxyphenyl)isonicotinonitrile] |

target: T1, LSD1 (Homo sapiens, UniProt O60341); test: LSD1 activity test (HTRF); type: biochemical; details: H3(1-21)K4 me1-biotin substrate, read-out: IC50, inhibitory activity on LSD1
T1 construct: purchased Active Motif 31432
Experimental: In this test, a homogeneous time resolved fluorescence (HTRF) technology was utilized, and the inhibitory activity of compounds on LSD1 was detected by adopting a two-step method. The first step was to incubate LSD1, compounds of different concentrations, and a biotin-labeled methylated polypeptide substrate (H3(1-21)K4 me1-biotin) at the room temperature for fixed time.
A corresponding solution with a 1000-fold final concentration was formed by dilution in a 384-well Source plate, and then Echo550 was used for transferring 10 nL to a 384-well reaction plate for being tested.
An inhibition percentage was calculated using a maximum value, a minimum value, and a signal value (maximum value: fluorescence intensity of 5 μL of 2× enzyme solution+5 μL of 2× substrate mixed solution+10 nL of 100% DMSO+10 μL of detection solution; minimum value: fluorescence intensity of 5 μL of 1× reaction solution+5 μL of 2× substrate mixed solution+10 nL of 100% DMSO+10 μL of detection solution; and signal value: fluorescence intensity of 5 μL of 2× enzyme solution+5 μL of 2× substrate mixed solution+10 nL of diluted compound to be tested+10 μL of detection solution), and a calculation formula was as follows: […]
Using a logarithm of the concentration as an X axis and the percentage inhibition rate as a Y axis, a dose-response curve was fitted using a formula log(inhibitor) vs. response-Variable slope (Four parameters) of analysis software Graphpad Prism 5 to obtain the IC50 value of each compound on the enzyme activity.

| IC50 [nM] | SMILES |
| --- | --- |
| 6.5 | Cn1ncc2cc(-c3c(-c4ccc(C#N)c(F)c4)nc(N4CCC(N)CC4)c4c3CNC4=O)ccc21 [Compound 8, 4-(4-(4-aminopiperid-1-yl)-7-(1-methyl-1H-indazol-5-yl)-3-oxo-2,3-dihydro-1H-pyrrole[3,4-c]pyrid-6-yl)-2-fluorobenzonitrile] |
| 1.2 | CC(C)(O)Cn1ncc2cc(-c3c(C(N)=O)cc(N4CCC(N)CC4)nc3-c3ccc(C#N)c(F)c3)c(F)cc21 [Compound 17, 6-(4-aminopiperid-1-yl)-2-(4-cyano-3-fluorophenyl)-3-(6-fluoro-1-(2-hydroxyl-2-methylpropyl)-1H-indazol-5-yl)isonicotinamide] |
| 5.8 | COc1ccc(-c2c(-c3ccc(C#N)c(F)c3)nc(N3CCC(N)CC3)c3c2CNC3=O)cc1F [Compound 3, 4-(4-(4-aminopiperid-1-yl)-7-(3-fluoro-4-methoxyphenyl)-3-oxo-2,3-dihydro-1H-pyrrole[3,4-c]pyrid-6-yl)-2-fluorobenzonitrile] |
| 3.1 | CC(C)(O)Cc1ccc(-c2c(C#N)cc(N3CCC(N)CC3)nc2-c2ccc(C#N)c(F)c2)c(F)c1 [Compound 19, 6-(4-aminopiperid-1-yl)-2-(4-cyano-3-fluorophenyl)-3-(2-fluoro-4-(2-hydroxyl-2-methylpropyl)phenyl)isonicotinonitrile] |
| 0.72 | CC(C)(O)Cn1ncc2cc(-c3c(-c4ccc(C#N)c(F)c4)nc(N4CCC(N)CC4)c4c3CNC4=O)c(F)cc21 [Compound 9, 4-(4-(4-aminopiperid-1-yl)-7-(6-fluoro-1-(2-hydroxyl-2-methylpropyl)-1H-indazol-5-yl)-3-oxo-2,3-dihydro-1H-pyrrole[3,4-c]pyrid-6-yl)-2-fluorobenzonitrile] |
| 4.4 | Cn1ncc2cc(-c3cc(C#N)c(N4CCC(N)CC4)nc3-c3ccc(C#N)c(F)c3)ccc21 [Compound 12, 2-(4-aminopiperid-1-yl)-6-(4-cyano-3-fluorophenyl)-5-(1-methyl-1H-indazol-5-yl)nicotinonitrile] |
| 1.5 | Cn1ncc2cc(-c3cc(C(N)=O)c(N4CCC(N)CC4)nc3-c3ccc(C#N)c(F)c3)ccc21 [Compound 11, 2-(4-aminopiperid-1-yl)-6-(4-cyano-3-fluorophenyl)-5-(1-methyl-1H-indazol-5-yl)nicotinamide] |

The remaining lines, values behind:

| SMILES | IC50 [nM] |
| --- | --- |
| COc1ccc(-c2c(C#N)cc(C3CCC(N)CC3)nc2-c2ccc(C#N)c(F)c2)cc1F (stereo not shown) [Compound 14, 6-(4-aminocyclohexyl)-2-(4-cyano-3-fluorophenyl)-3-(3-fluoro-4-methoxyphenyl)isonicotinonitrile] | 8.9 |
| COc1ccc(-c2c(C#N)cc(N3CCC4(CCNC4)CC3)nc2-c2ccc(C#N)c(F)c2)cc1F [Compound 29, 2-(4-cyano-3-fluorophenyl)-3-(3-fluoro-4-methoxyphenyl)-6-(2,8-diazaspiro[4.5]dec-8-yl)isonicotinonitrile] | 3.4 |
| Cn1ncc2cc(-c3c(C#N)cc(N4CCCNCC4)nc3-c3ccc(C#N)c(F)c3)ccc21 [Compound 20, 2-(4-cyano-3-fluorophenyl)-6-(1,4-diazaniline-1-yl)-3-(1-methyl-1H-indazol-5-yl)isonicotinonitrile] | 1.4 |
| Cc1noc2cc(-c3c(C#N)cc(N4CCC(N)CC4)nc3-c3ccc(C#N)c(F)c3)c(F)cc12 [Compound 33, 6-(4-aminopiperid-1-yl)-2-(4-cyano-3-fluorophenyl)-3-(5-fluoro-3-tolueno[d]isoxazol-6-yl)isonicotinonitrile] | 0.34 |
| CN1C(=O)C(F)(F)c2cc(-c3c(C#N)cc(N4CCC(N)CC4)nc3-c3ccc(C#N)c(F)c3)ccc21 [Compound 34, 6-(4-aminopiperid-1-yl)-2-(4-cyano-3-fluorophenyl)-3-(3,3-difluoro-1-methyl-2-oxoindol-5-yl)isonicotinonitrile] | 1.5 |
| COc1ccc(-c2c(C#N)cc(N3CCCNCC3)nc2-c2ccc(C#N)c(F)c2)cc1F [Compound 15, 2-(4-cyano-3-fluorophenyl)-6-(1,4-diazacyclohepta-1-yl)-3-(3-fluoro-4-methoxyphenyl)isonicotinonitrile] | 2 |
| COc1ccc(-c2c(C#N)cc(N3CCC4(CC3)CNC4)nc2-c2ccc(C#N)c(F)c2)cc1F [Compound 22, 2-(4-cyano-3-fluorophenyl)-3-(3-fluoro-4-methoxyphenyl)-6-(2,7-diazaspiro[3.5]non-7-yl)isonicotinonitrile] | 6.2 |
| COc1ccc(-c2c(C#N)cc(N3CCC(N)CC3)nc2-c2ccc(C#N)c(F)c2)cc1F [Compound 1, 6-(4-aminopiperid-1-yl)-2-(4-cyano-3-fluorophenyl)-3-(3-fluoro-4-methoxyphenyl)isonicotinonitrile] | 2.1 |
| Cn1ncc2cc(-c3cc(C(N)=O)c(N4CCCNCC4)nc3-c3ccc(C#N)c(F)c3)ccc21 [Compound 26, 6-(4-cyano-3-fluorophenyl)-2-(1,4-diaza-1-yl)-5-(1-methyl-1H-indazol-5-yl)nicotinamide] | 2.9 |
| CC(C)(O)C(F)(F)c1ccc(-c2c(C#N)cc(N3CCC(N)CC3)nc2-c2ccc(C#N)c(F)c2)c(F)c1 [Compound 35, 6-(4-aminopiperid-1-yl)-2-(4-cyano-3-fluorophenyl)-3-(4-(1,1-difluoro-2-hydroxyl-2-methylpropyl)-2-fluorophenyl)isonicotinonitrile] | 2.2 |
| Cn1ncc2cc(-c3c(C(N)=O)cc(N4CCC(N)CC4)nc3-c3ccc(C#N)c(F)c3)ccc21 [Compound 10, 6-(4-aminopiperid-1-yl)-2-(4-cyano-3-fluorophenyl)-3-(1-methyl-1H-indazol-5-yl)isonicotinamide] | 0.81 |
| Cn1ncc2cc(-c3cc(C(=O)NC4CC4)c(N4CCCNCC4)nc3-c3ccc(C#N)c(F)c3)ccc21 [Compound 28] | 2.3 |
| CN(C)C(=O)c1cc(-c2ccc3c(cnn3C)c2)c(-c2ccc(C#N)c(F)c2)nc1N1CCCNCC1 [Compound 27, 6-(4-cyano-3-fluorophenyl)-2-(1,4-diazaniline-1-yl)-N,N-dimethyl-5-(1-methyl-1H-indazol-5-yl)nicotinamide] | 3.3 |
| COc1ccc(-c2c(C(N)=O)cc(N3CCC(N)CC3)nc2-c2ccc(C#N)c(F)c2)cc1F [Compound 2, 6-(4-aminopiperid-1-yl)-2-(4-cyano-3-fluorophenyl)-3-(3-fluoro-4-methoxyphenyl)isonicotinamide] | 4.8 |
